Experiments:
[1] = system: ovalbumin (OA) induced bronchial hyperresponsiveness; experiment: Pulmonary function test, OA sensitized and challenged BALBc mice; type: in vivo
Procedure: In the nonanesthetized condition, 24 hours after airway challenge by 3 mL 1% OA aerosol, pulmonary function testing (PET) was measured by WBP at baseline and after methacholine (Mch) inhalation challenge. Four hours after PET in a nonanesthetized condition, all animals were anesthetized with sodium pentobarbitone (50 mg/kg intraperitoneally). Jugular vein cannulation (PE-10 polyethylene tube filled with heaprin, 1000 iu/mL in normal saline) and tracheostomy were performed. The animals were put in a body box (anesthetized small animal body box, Buxco, USA) in a supine position. Gallamine triethiodide (4 mg/kg) was injected intravenously to induce paralysis and inhibit spontaneous breathing. A small animal ventilator set at a tidal volume 6 mL/kg and a respiratory rate of 120 times/minute was used to ventilate the animals by room air. All animals were stable without spontaneous breathing 5 minutes after gallamine was given. Pulmonary function tests, including flow volume loop, peak airway opening pressure (PaO), and gas flow to calculate total dynamic lung compliance, were examined at baseline. Thereafter, 25, 50, 75 and 100 μg/kg of acetylcholine were given intravenously at 30 minute intervals. Pulmonary function test were done 5 seconds after each dose of acetylcholine. Before each dose of acetylcholine the flow volume loop returned to baseline.
The PaO was measured by a Gould pressure transducer at the tracheostomy. PaO was defined as opening airway pressure during tidal breathing when a small animal ventilator was used (tidal volume 6 mL/kg, respiratory rate 120 times/minute). Respiratory flow was measured by a DP-45-14 differential pressure transducer.
For the maximal forced expiratory maneuver (MFEM), the lungs were inflated to total lung capacity (TLC, lung volume at PaO =35 cm H2O) 3 times; the inflation was regulated by a solenoid valve. At peak volume during the third inflation, the inflation valve was shut off and the other solenoid valve was used immediately for deflation. The deflation valve was connected to a 20 liter container with a pressure of −40 cm H2O (subatmospheric). The negative pressure produced maximal expiratory flow (Vmax). The changes in flow, volume and PaO were recorded by a 7P1, 7P10 preamplifier (Grass instrument Company, USA) from the body box and flow volume was stored in an oscilloscope (Hitachi Den Shi America Ltd, New York, USA). The parameters of the flow volume loop (FV loop), including peak flow (the maximal flow rate of the FV loop), MFEF75% (the flow rate at 75% TLC), MFEF50% (the flow rate at 50% TLC) and MFEF25% (the flow rate at 25% TLC) were recorded.
PD20MFEF50%Ach is the dose of acetylcholine required to produce a decrease in MFEF50% of 20% from baseline. PD20MFEF25%Ach is the dose required to produce a decrease in MFEF25% of 20% from baseline. PD50PaOAch is the dose required to produce an increase in PaO of 50% from baseline. PD50CdynAch is the dose required to produce a decrease in Cdyn of 50% from baseline. PD50RawAch is the dose required to produce an increase in Raw of 50% from baseline after acetylcholine was given.
TLC and residual volume (RV) were defined as the gas volume in the lungs at airway pressures of +30 cm H2O (TLC) and −10 cm H2O (RV) respectively. The lungs were deflated to RV by connecting one port of the respiratory valve to a 4-liter reservoir at −10 cm H2O; the valve was then turned, and the lungs were inflated from a syringe to TLC. The volume necessary to inflate the lungs from −10 to 30 cm H2O was read from the syringe and was recorded as the vital capacity (VC). A specific measurement sequence was used throughout the study. VC was determined three times and then TLC was measured three times each. The average valve of the three measurements was reported.
Lung volumes (such as TLC and FRC) were also measured using the gas (Neon) dilution principle. […]

[2] = system: ovalbumin (OA) induced bronchial hyperresponsiveness; experiment: Histological examination of lung tissue in asthma model; type: in vivo, brown Norway rats (BNR); settings: prophylactic and therapeutic treatment
Procedure: After BAL, each animal's chest was opened and the lungs were removed. The trachea and right lower lobe was fixed in 10% formaldehyde, dehydrated by different concentrations of alcohol, then embedded in paraffin, and cut into 4 μm thicknesses, stained with haematoxylin and eosin, and examined by light microscope. Histologic specimens (n=6 per each time point) were prepared. The trachea and each lobe were fixed in 10% formaldehyde, dehydrated by different concentrations of alcohol, then embedded in paraffin, and cut into 4 μm thicknesses; stained with haematosylin and eosin, and examined by light microscope for evaluation of the severity of inflammation. Each trachea and lung section was blindly assigned an inflammation score by two pathologists as follows; 1=rare or occasional inflammation cells scattered through the lung or trachea; 3=abundant inflammatory cells scattered through the lung or trachea; 2=inflammatory cells between the levels of 1 and 3. The total inflammation score for each animal was calculated as mean of the scores for 5 lung sections and trachea.

[3] = BALBc mice, baseline, 4 mg/Kg intraperitoneally 30 minutes before OA inhalation provocation, mean±SD

CC(C)[C@@H](C)C=C[C@@H](C)[C@H]1CC[C@H]2C3=C[C@@H](O)[C@@]4(O)C[C@@H](O)CC[C@]4(C)[C@H]3CC[C@]12C [F8, (24R)-ergosta-7,22-diene-3β, 5α, 6β,-triol]
percentage of baseline MFEF 50% TLC, Ach dose response ([1]; BALB/c mice, pretreated before OA inhalation provocation (group I) vs OA-treated (group II), Ach doses higher than 25 μg/kg): group II was significantly lower then group I
Cdyn (total dynamic lung compliance) [1, 3]: 0.42 ± 0.04 mL/cmH2O
FEV 0.1 [1, 3]: 1.26 ± 0.17 mL
MFEF 25% [1, 3]: 6.06 ± 1.59 mL/s
MFEF 50% [1, 3]: 14.58 ± 1.31 mL/s
MFEF 75% [1, 3]: 19.94 ± 2.53 mL/s
PaO (airway opening pressure at tidal breathing) [1, 3]: 3.8 ± 0.5 cmH2O
Peak flow [1, 3]: 22.64 ± 2.07 mL/s
TLC [1, 3]: 1.68 ± 0.25 mL
Vital capacity [1, 3]: 1.29 ± 0.11 mL
baseline flow volume loop parameters (MFEF 50%TLC, MFEF 25%TLC, Cdyn) versus group II ([1]; mice, treatment study (administered after OA challenge), p<0.05): lower in group II when compared with group I and III
pulmonary histological change [2]: improve pulmonary histological change
